Laboratory results published in US20100298141A1, “SUBSTITUTED PYRIDINE N-OXIDE HERBICIDES” (E. I. DU PONT DE NEMOURS AND COMPANY, priority 2007, published 2010).

How the values were obtained:
[1] = tested on: barnyardgrass; experiment: Test A pre-/postemergence greenhouse test; assay type: in vivo, Echinochloa crus-galli; conditions: for Plant response rating, Barnyardgrass: 0 to 100 scale where 0 is no effect and 100 is complete control; for Barnyardgrass plant response rating: 0 to 100 scale
Outline: (§1)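 Sowing in loam/sand; same-day pre (directed soil spray) and post (foliar, 1–2 leaf, 2–10 cm) treatment with surfactant-containing non-phytotoxic solvent formulation; ~10 days in greenhouse; eye-scored injury against untreated plants.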

[2] = tested on: crabgrass; experiment: Test A pre-/postemergence greenhouse test; assay type: in vivo, Digitaria sanguinalis; conditions: for Plant response rating, Crabgrass, Large: 0 to 100 scale where 0 is no effect and 100 is complete control; for Crabgrass, Large plant response rating: 0 to 100 scale
Outline: as §1

[3] = tested on: giant foxtail; experiment: Test A pre-/postemergence greenhouse test; assay type: in vivo, Setaria faberi; conditions: for Plant response rating, Foxtail, Giant: 0 to 100 scale where 0 is no effect and 100 is complete control; for Foxtail, Giant plant response rating: 0 to 100 scale
Outline: as §1

[4] = tested on: morningglory; experiment: Test A pre-/postemergence greenhouse test; assay type: in vivo, Ipomoea spp.; conditions: for Plant response rating, Morningglory: 0 to 100 scale where 0 is no effect and 100 is complete control; for Morningglory plant response rating: 0 to 100 scale
Outline: as §1

[5] = tested on: Italian ryegrass; experiment: Test C pre-/postemergence test; assay type: in vivo, Lolium multiflorum
Outline: (§2)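 Compounds in a non-phytotoxic solvent with surfactant applied preemergence to seeded pots and, at the same time, postemergence to plants 2–18 cm tall (1- to 4-leaf stage). Paddy tests: pots flooded to 3 cm, compound applied into the water, depth held throughout.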

[6] = tested on: bermudagrass; experiment: Test C pre-/postemergence test; assay type: in vivo, Cynodon dactylon
Outline: as §2

[7] = tested on: Surinam grass; experiment: Test C pre-/postemergence test; assay type: in vivo, Brachiaria decumbens
Outline: as §2

[8] = tested on: cocklebur; experiment: Test C pre-/postemergence test; assay type: in vivo, Xanthium strumarium
Outline: as §2

[9] = tested on: crabgrass; experiment: Test C pre-/postemergence test; assay type: in vivo, Digitaria sanguinalis
Outline: as §2

[10] = tested on: Goosegrass; experiment: Test C pre-/postemergence test; assay type: in vivo, Eleusin indica
Outline: as §2

[11] = tested on: kochia; experiment: Test C pre-/postemergence test; assay type: in vivo, Kochia scoparia
Outline: as §2

[12] = tested on: lambsquarters; experiment: Test C pre-/postemergence test; assay type: in vivo, Chenopodium album
Outline: as §2

[13] = tested on: pigweed; experiment: Test C pre-/postemergence test; assay type: in vivo, Amaranthus retroflexus
Outline: as §2

[14] = tested on: soybean; experiment: Test C pre-/postemergence test; assay type: in vivo, Glycine max
Outline: as §2

[15] = tested on: common (oilseed) sunflower; experiment: Test C pre-/postemergence test; assay type: in vivo, Helianthus annuus
Outline: as §2

[16] = tested on: umbrella sedge; experiment: Test C flooded paddy test; assay type: in vivo, Cyperus difformis; conditions: Flood
Outline: (§3)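 Test compounds are applied straight into paddy water held 3 cm above the soil surface, with that flood maintained for the whole test. After 13 to 15 days in the greenhouse, each species is scored visually relative to controls.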

[17] = tested on: barnyardgrass; experiment: Test C flooded paddy test; assay type: in vivo, Echinochloa crus-galli; conditions: Flood
Outline: as §3

[18] = Postemergence, 500 g ai/ha, 0 is no effect, 100 is complete control
[19] = Preemergence, 125 g ai/ha, 0 no effect, 100 complete control
[20] = 62 g ai/ha, Preemergence, scale 0 to 100
[21] = 125 g ai/ha, preemergence, scale 0 (no effect) to 100 (complete control)
[22] = Preemergence, 31 g ai/ha, scale 0 to 100 (0 no effect, 100 complete control)
[23] = preemergence, 250 g ai/ha, scale 0 (no effect) to 100 (complete control)
[24] = 62 g ai/ha, scale 0 to 100 (0 no effect, 100 complete control)
[25] = 250 g ai/ha, scale 0 to 100, 0 no effect, 100 complete control, 13 to 15 days
[26] = Postemergence, 125 g ai/ha, 0 is no effect, 100 is complete control
[27] = 31 g ai/ha, Preemergence, scale 0 to 100
[28] = 62 g ai/ha, preemergence, scale 0 (no effect) to 100 (complete control)
[29] = preemergence, 125 g ai/ha, scale 0 (no effect) to 100 (complete control)
[30] = 31 g ai/ha, scale 0 to 100 (0 no effect, 100 complete control)
[31] = 62 g ai/ha, scale 0 to 100, 0 no effect, 100 complete control, 13 to 15 days
[32] = 125 g ai/ha, scale 0 to 100, 0 no effect, 100 complete control, 13 to 15 days
[33] = 250 g ai/ha, scale 0 to 100 (0 no effect, 100 complete control)

Cc1cc([S+]([O-])Cc2c(C(F)(F)F)nn(C)c2OCC(F)(F)F)[n+]([O-])cc1Cl (stereo not drawn) [Compound 70]
60: Plant response rating, Foxtail, Giant ([3]; Postemergence, 125 g ai/ha)
100: Plant response rating, Barnyardgrass ([1]; Preemergence, 500 g ai/ha) | Plant response rating, Crabgrass, Large ([2]; Preemergence, 500 g ai/ha) | Foxtail, Giant plant response rating [3, 19] | Plant response rating, Foxtail, Giant ([3]; Preemergence, 500 g ai/ha) | Plant response rating, Morningglory ([4]; Preemergence, 500 g ai/ha) | Ryegrass, Italian plant response rating [5, 21] | Ryegrass, Italian plant response rating [5, 23] | Bermudagrass plant response rating ([6]; 62 g ai/ha, Preemergence, scale 0 to 100 (0 no effect, 100 complete control)) | Bermudagrass plant response rating [6, 21] | Plant response rating, Bermudagrass [6, 22] | Bermudagrass plant response rating [6, 23] | Surinam Grass plant response rating [7, 23] | Crabgrass, Large plant response rating [9, 20] | Crabgrass, Large plant response rating [9, 21] | Crabgrass, Large plant response rating [9, 23] | Goosegrass plant response rating [10, 20] | Goosegrass plant response rating [10, 21] | Plant response rating, Goosegrass [10, 22] | Goosegrass plant response rating [10, 23] | Kochia plant response rating [11, 20] | Kochia plant response rating [11, 21] | Plant response rating, Kochia [11, 22] | Kochia plant response rating [11, 23] | Lambsquarters plant response rating [12, 20] | Lambsquarters plant response rating [12, 21] | Plant response rating, Lambsquarters [12, 22] | Lambsquarters plant response rating [12, 23] | Pigweed plant response rating [13, 20] | Pigweed plant response rating [13, 21] | Plant response rating, Pigweed [13, 22] | Pigweed plant response rating [13, 23] | Plant response rating, Sedge, Umbrella [16, 25]
30: Plant response rating, Morningglory ([4]; Postemergence, 125 g ai/ha) | Morningglory plant response rating [4, 19] | Soybean plant response rating [14, 20]
90: Barnyardgrass plant response rating [1, 18] | Crabgrass, Large plant response rating [2, 19] | Foxtail, Giant plant response rating [3, 18] | Surinam Grass plant response rating [7, 21]
50: Plant response rating, Crabgrass, Large ([2]; Postemergence, 125 g ai/ha)
85: Ryegrass, Italian plant response rating [5, 20] | Plant response rating, Ryegrass, Italian [5, 22] | Surinam Grass plant response rating [7, 20] | Plant response rating, Crabgrass, Large [9, 22] | Soybean plant response rating [14, 23]
95: Plant response rating, Barnyardgrass [17, 25]
65: Plant response rating, Surinam Grass [7, 22]
70: Plant response rating, Barnyardgrass ([1]; Postemergence, 125 g ai/ha) | Morningglory plant response rating [4, 18]
80: Barnyardgrass plant response rating [1, 19] | Crabgrass, Large plant response rating [2, 18] | Soybean plant response rating [14, 21] | Sunflower plant response rating [15, 23] | Plant response rating, Sedge, Umbrella [16, 24]
45: Sunflower plant response rating [15, 20] | Sunflower plant response rating [15, 21]
0: Cocklebur plant response rating [8, 20] | Cocklebur plant response rating [8, 21] | Plant response rating, Cocklebur [8, 22] | Cocklebur plant response rating [8, 23] | Plant response rating, Sunflower [15, 22] | Plant response rating, Barnyardgrass [17, 24]

Cc1cc[n+]([O-])c(S(=O)(=O)C(C)c2c(C(F)(F)F)nn(C)c2Cl)c1 (racemic) [Compound 14]
85: Surinam Grass plant response rating [7, 28] | Plant response rating (0 to 100), Soybean ([14]; Preemergence, 250 g ai/ha) | Sunflower plant response rating [15, 28] | Plant response rating, Sedge, Umbrella [16, 31]
0: Cocklebur plant response rating [8, 27] | Cocklebur plant response rating [8, 28] | Kochia plant response rating [11, 27] | Kochia plant response rating [11, 28] | Soybean plant response rating [14, 27] | Soybean plant response rating [14, 28] | Plant response rating, Barnyardgrass [17, 30] | Plant response rating, Barnyardgrass [17, 31]
98: Sunflower plant response rating [15, 29]
100: Plant response rating, Barnyardgrass ([1]; Preemergence, 500 g ai/ha) | Plant response rating, Crabgrass, Large ([2]; Preemergence, 500 g ai/ha) | Plant response rating, Foxtail, Giant ([3]; Preemergence, 500 g ai/ha) | Plant response rating, Morningglory ([4]; Preemergence, 500 g ai/ha) | Plant response rating (0 to 100), Ryegrass, Italian ([5]; Preemergence, 250 g ai/ha) | Ryegrass, Italian plant response rating [5, 29] | Bermudagrass plant response rating [6, 28] | Plant response rating (0 to 100), Bermudagrass ([6]; Preemergence, 250 g ai/ha) | Bermudagrass plant response rating [6, 29] | Plant response rating (0 to 100), Surinam Grass ([7]; Preemergence, 250 g ai/ha) | Crabgrass, Large plant response rating [9, 27] | Crabgrass, Large plant response rating [9, 28] | Plant response rating (0 to 100), Crabgrass, Large ([9]; Preemergence, 250 g ai/ha) | Crabgrass, Large plant response rating [9, 29] | Goosegrass plant response rating [10, 27] | Goosegrass plant response rating [10, 28] | Plant response rating (0 to 100), Goosegrass ([10]; Preemergence, 250 g ai/ha) | Goosegrass plant response rating [10, 29] | Plant response rating (0 to 100), Kochia ([11]; Preemergence, 250 g ai/ha) | Kochia plant response rating [11, 29] | Lambsquarters plant response rating [12, 28] | Plant response rating (0 to 100), Lambsquarters ([12]; Preemergence, 250 g ai/ha) | Lambsquarters plant response rating [12, 29] | Pigweed plant response rating [13, 27] | Pigweed plant response rating [13, 28] | Plant response rating (0 to 100), Pigweed ([13]; Preemergence, 250 g ai/ha) | Pigweed plant response rating [13, 29] | Plant response rating (0 to 100), Sunflower ([15]; Preemergence, 250 g ai/ha) | Plant response rating, Sedge, Umbrella [16, 32] | Plant response rating, Sedge, Umbrella [16, 33] | Plant response rating, Barnyardgrass [17, 33]
20: Ryegrass, Italian plant response rating [5, 27]
10: Morningglory plant response rating [4, 19] | Plant response rating (0 to 100), Cocklebur ([8]; Preemergence, 250 g ai/ha) | Cocklebur plant response rating [8, 29]
60: Barnyardgrass plant response rating [1, 18] | Plant response rating, Barnyardgrass [17, 32]
30: Barnyardgrass plant response rating [1, 26] | Morningglory plant response rating [4, 26] | Lambsquarters plant response rating [12, 27]
75: Plant response rating, Sedge, Umbrella [16, 30]
50: Morningglory plant response rating [4, 18]
40: Crabgrass, Large plant response rating [2, 26]
70: Crabgrass, Large plant response rating [2, 18] | Foxtail, Giant plant response rating [3, 26]
55: Ryegrass, Italian plant response rating [5, 28]
5: Soybean plant response rating [14, 29]
80: Barnyardgrass plant response rating [1, 19] | Foxtail, Giant plant response rating [3, 18] | Bermudagrass plant response rating [6, 27]
95: Surinam Grass plant response rating [7, 29]
90: Crabgrass, Large plant response rating [2, 19] | Foxtail, Giant plant response rating [3, 19]
